Measured values published in ChEMBL document CHEMBL4152325, “Tacripyrimidines, the first tacrine-dihydropyrimidine hybrids, as multi-target-directed ligands for Alzheimer's disease” (Eur J Med Chem, 2018).
The source made the active and inactive calls. The calls are words filed in the database; no cut-off is given here.

What was measured:
Acetylcholinesterase [1] = target: T1, Acetylcholinesterase (Homo sapiens, UniProt P22303); test: Inhibition of recombinant human AChE expressed in HEK293 cells using acetylthiocholine as substrate pretreated for 20 mins followed by substrate addition by Ellman's method; format: cell-based
T1 sequence (P22303 whole entry): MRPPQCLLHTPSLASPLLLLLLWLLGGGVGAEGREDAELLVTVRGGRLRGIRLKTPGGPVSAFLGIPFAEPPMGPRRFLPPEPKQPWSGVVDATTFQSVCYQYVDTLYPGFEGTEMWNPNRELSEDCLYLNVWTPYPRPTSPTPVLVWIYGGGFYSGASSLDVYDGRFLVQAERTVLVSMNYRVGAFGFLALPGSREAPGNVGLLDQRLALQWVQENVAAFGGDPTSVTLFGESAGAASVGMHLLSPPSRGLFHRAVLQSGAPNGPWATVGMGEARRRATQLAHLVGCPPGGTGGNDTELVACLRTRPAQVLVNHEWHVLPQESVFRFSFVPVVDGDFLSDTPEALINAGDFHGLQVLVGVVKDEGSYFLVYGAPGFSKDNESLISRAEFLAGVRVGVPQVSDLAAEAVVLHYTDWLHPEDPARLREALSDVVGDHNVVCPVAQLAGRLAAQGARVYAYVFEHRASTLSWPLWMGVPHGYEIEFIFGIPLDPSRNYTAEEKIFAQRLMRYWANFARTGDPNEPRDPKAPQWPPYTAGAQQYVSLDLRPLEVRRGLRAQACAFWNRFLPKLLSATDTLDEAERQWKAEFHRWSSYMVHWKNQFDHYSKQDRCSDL

Cholinesterase = Cholinesterase (Homo sapiens, UniProt P06276); test: Inhibition of recombinant human serum BChE using butyrylthiocholine as substrate pretreated for 20 mins followed by substrate addition by Ellman's method
Cholinesterase, sequence (P06276 whole entry): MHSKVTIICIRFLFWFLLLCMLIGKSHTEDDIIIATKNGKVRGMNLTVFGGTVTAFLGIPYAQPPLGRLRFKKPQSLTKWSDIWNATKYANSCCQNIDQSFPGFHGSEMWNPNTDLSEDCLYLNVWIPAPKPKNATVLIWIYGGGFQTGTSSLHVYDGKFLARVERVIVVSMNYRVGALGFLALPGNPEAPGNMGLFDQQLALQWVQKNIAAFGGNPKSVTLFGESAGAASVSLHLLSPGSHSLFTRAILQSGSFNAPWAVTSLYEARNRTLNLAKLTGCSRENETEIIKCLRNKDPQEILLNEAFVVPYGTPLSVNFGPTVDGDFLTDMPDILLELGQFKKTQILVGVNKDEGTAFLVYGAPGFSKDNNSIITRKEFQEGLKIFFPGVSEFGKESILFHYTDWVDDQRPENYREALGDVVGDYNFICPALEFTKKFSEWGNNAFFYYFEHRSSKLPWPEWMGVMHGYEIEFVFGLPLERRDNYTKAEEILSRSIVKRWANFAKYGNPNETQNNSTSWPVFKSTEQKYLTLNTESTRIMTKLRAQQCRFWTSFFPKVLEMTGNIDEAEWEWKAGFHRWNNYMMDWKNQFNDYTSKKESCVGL

Acetylcholinesterase [2] = target: T1, Acetylcholinesterase; test: Non-competitive inhibition of recombinant human AChE expressed in HEK293 cells using varying levels of acetylthiocholine as substrate by Lineweaver-burk double reciprocal plot analysis; format: cell-based
Acetylcholinesterase [3] = target: T1, Acetylcholinesterase; test: Non-competitive inhibition of recombinant human AChE expressed in HEK293 cells assessed as enzyme-substrate-inhibitor complex using varying levels of acetylthiocholine as substrate by Dixon plot analysis
[4] = target: Amyloid-beta precursor protein (Homo sapiens) (UniProt P05067); test: Inhibition of HFIP-pretreated amyloid beta (1 to 42 residues) (unknown origin) self aggregation at 50 uM after 24 hrs by ThT-based fluorometric method relative to control
Amyloid-beta precursor protein (Homo sapiens), sequence (P05067 whole entry, the tested form may be a part): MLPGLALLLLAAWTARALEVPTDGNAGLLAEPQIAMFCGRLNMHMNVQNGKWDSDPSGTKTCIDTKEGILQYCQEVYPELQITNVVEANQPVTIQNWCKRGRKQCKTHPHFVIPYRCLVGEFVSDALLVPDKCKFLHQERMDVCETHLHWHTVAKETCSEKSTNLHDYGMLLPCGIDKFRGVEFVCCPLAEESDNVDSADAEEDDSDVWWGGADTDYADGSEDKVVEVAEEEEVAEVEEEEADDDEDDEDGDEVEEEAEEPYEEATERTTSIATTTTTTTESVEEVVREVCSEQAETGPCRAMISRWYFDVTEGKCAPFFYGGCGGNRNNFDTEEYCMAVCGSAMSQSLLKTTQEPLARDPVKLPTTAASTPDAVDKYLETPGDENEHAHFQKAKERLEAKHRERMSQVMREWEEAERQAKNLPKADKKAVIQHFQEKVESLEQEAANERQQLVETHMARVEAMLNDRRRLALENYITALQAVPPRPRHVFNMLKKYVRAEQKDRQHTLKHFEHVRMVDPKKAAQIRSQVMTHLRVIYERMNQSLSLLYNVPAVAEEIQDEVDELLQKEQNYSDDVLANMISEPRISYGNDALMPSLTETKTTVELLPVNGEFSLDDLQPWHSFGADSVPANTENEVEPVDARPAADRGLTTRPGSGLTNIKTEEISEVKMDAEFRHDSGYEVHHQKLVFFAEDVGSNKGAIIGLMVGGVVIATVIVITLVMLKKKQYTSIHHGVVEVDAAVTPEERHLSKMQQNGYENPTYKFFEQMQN

in vitro [5] = settings: human, HepG2 cells
Description: Cytotoxicity against human HepG2 cells assessed as cell viability at 300 uM after 24 hrs by CellTiter-Glo luminescence assay relative to control

in vitro [6] = settings: human, HepG2 cells; remark: listed apart in the source
Description: Cytotoxicity against human HepG2 cells assessed as cell viability at 10 uM after 24 hrs by CellTiter-Glo luminescence assay relative to control

in vitro [7] = settings: human, HepG2 cells; remark: listed apart in the source
Description: Cytotoxicity against human HepG2 cells assessed as cell viability at 100 uM after 24 hrs by CellTiter-Glo luminescence assay relative to control

Acetylcholinesterase [8] = target: T1, Acetylcholinesterase; test: Potency index, ratio of tacrine IC50 to test compound IC50 for recombinant human AChE expressed in HEK293 cells; format: cell-based

| Compound | IC50 (Acetylcholinesterase [1]) [µM] | IC50 (Cholinesterase) [µM] | inhibition (Acetylcholinesterase [2]) | Ki (Acetylcholinesterase [3]) [µM] | inhibition [4] [%] | viability at 24 h, 300 µM (in vitro [5]) [%] | viability at 24 h, 10 µM (in vitro [6]) [%] | viability at 24 h, 100 µM (in vitro [7]) [%] | Ratio IC50 (Acetylcholinesterase [8]) |
| --- | --- | --- | --- | --- | --- | --- | --- | --- | --- |
| COc1cccc(C2NC(=S)Nc3nc4c(c(N)c32)CCCC4)c1 (stereo not drawn) | 3.05 | 3.19 | Active | 3.88 | 10 | 97.5 | 100 | 102 |  |
| Nc1c2c(nc3c1C(c1ccc4c(c1)OCO4)NC(=S)N3)CCCC2 (stereo not drawn) | 8.18 | 37.5 |  |  |  | 64.1 | 103 | 91.2 |  |
| Cc1cccc(C2NC(=S)Nc3nc4c(c(N)c32)CCCC4)c1 (stereo not drawn) | 10.1 | 2.65 |  |  |  | 68.1 | 97.6 | 82.5 |  |
| Nc1c2c(nc3c1C(c1ccc(Cl)cc1)NC(=S)N3)CCCC2 (stereo not drawn) | 5.28 | 0.372 |  |  | 10 | 9 | 80 | 27.9 |  |
| Nc1c2c(nc3c1C(c1cccc([N+](=O)[O-])c1)NC(=S)N3)CCCC2 (stereo not drawn) | 29.8 | 2.68 |  |  |  | 82.7 | 102 | 96.5 |  |
| Nc1c2c(nc3c1C(c1ccc(F)cc1)NC(=S)N3)CCCC2 (stereo not drawn) | 31 | 10 |  |  |  | 72.5 | 104 | 79.1 |  |
| COc1ccc(C2NC(=S)Nc3nc4c(c(N)c32)CCCC4)cc1 (stereo not drawn) | 7.64 | 1.75 |  |  |  | 77.6 | 97.9 | 100 |  |
| Nc1c2c(nc3c1C(c1ccccc1)NC(=S)N3)CCCC2 (stereo not drawn) | 10.8 | 5.68 |  |  |  | 68.2 | 105 | 97.2 |  |
| COc1ccccc1C1NC(=S)Nc2nc3c(c(N)c21)CCCC3 (stereo not drawn) | 31.2 | 11.7 |  |  |  | 68.1 | 98.1 | 81.1 |  |
| CN(C)c1ccc(C2NC(=S)Nc3nc4c(c(N)c32)CCCC4)cc1 (stereo not drawn) | 24.1 | 154 |  |  |  | 78.9 | 87.3 | 82.5 |  |
| Nc1c2c(nc3c1C(c1cccc(Br)c1)NC(=S)N3)CCCC2 (stereo not drawn) | 0.0373 | 1.27 | Active | 0.147 | 10 | 62.3 | 103 | 76.8 | 9.4 to 10 |
| Cc1ccc(C2NC(=S)Nc3nc4c(c(N)c32)CCCC4)cc1 (stereo not drawn) | 23.8 | 3.47 |  |  |  | 45.2 | 90.6 | 62 |  |
